The results in this text go back to US20060188938A1, “Compounds for inhibiting beta-amyloid production and methods of identifying the compounds” (priority 2005, published 2006).

The subject of series [1] is β-amyloid production by 7W WT APP751 CHO cells. The series is described as follows: Screening of NF-kB activation inhibitors, Aβ1-40 and Aβ1-42 ELISA (Example 3). The class given is cell-based, Chinese hamster. The conditions noted are these: 24 hours (FIG. 6). As for the experimental part: Most of the compounds screened can be obtained as Calbiochem products from EMD Biosciences, Inc., La Jolla, Calif. R—and S-Niguldipine are available e.g., from Tocris Cookson Inc., Ellisville, Mo. CAPE and Artemisinin are available, e.g., as a Sigma product from Sigma-Aldrich Corp., St. Louis, Mo.
Each compound was dissolved in DMSO. 7W WT APP751 CHO cells overexpressing APP751 were plated into 96-well culture plates in 200 μL of culture medium. Each compound from the library was added to confluent cells to a final concentration of 500 nM, 1 μM, 5 μM, 10 μM and/or 30 μM. After 24 hours of treatment, culture medium was collected and dissolved 10-fold and 2-fold for measuring the level of Aβ1-40 and Aβ1-42, respectively. Aβ1-40 and Aβ1-42 were determined using commercially available ELISAs (Biosource, CA), following the recommendations of the manufacturer.
(In an ELISA, binding on a coated surface is turned into a signal by an enzyme label.)

For series [2] the test system is unchanged. The series is described as follows: Screening of dihydropyridine compounds (Maybridge), Aβ1-40 and Aβ1-42 ELISA (Example 2). The class given is cell-based, Chinese hamster. To be noted: 30 μM, 24 hours (FIGS. 5A-B). How it is done:
Dihydropyridine compounds were obtained from Maybridge (England). Each compound was dissolved in DMSO. 7W WT APP751 CHO cells overexpressing APP751 were plated into 96-well culture plates in 200 μL of culture medium. Each compound from the library was added to confluent cells to a final concentration of 30 μM. After 24 hours of treatment, culture medium was collected and dissolved 10-fold and 2-fold for measuring the level of Aβ1-40 and Aβ1-42, respectively. Aβ1-40 and Aβ1-42 were determined using commercially available ELISAs (Biosource, CA), following the recommendations of the manufacturer.

Molecules are shown by their SMILES.

With `Nc1ccc2ncnc(NCCc3ccc(Oc4ccccc4)cc3)c2c1` [6-amino-4-(4-phenoxyphenylethylamino)quinazoline], in series [1] (500 nM), the “concentration of Aβ1-40 compared to controls” value was “significantly decreased”, the “concentration of Aβ1-42 compared to controls” value was “significantly decreased” and the “concentration of total β-amyloid compared to controls” value is “significantly decreased”. Besides, in series [1] (5 μM), the “concentration of Aβ1-40 compared to controls” value is reported as “significantly decreased”, the “concentration of Aβ1-42 compared to controls” value is given as “significantly decreased” and the “concentration of total β-amyloid compared to controls” value is listed as “significantly decreased”.
Turning to `COC(=O)C1=C(C)NC(C)=C(C(=O)OCCCN2CCC(c3ccccc3)(c3ccccc3)CC2)[C@H]1c1cccc([N+](=O)[O-])c1.Cl` [(S)-(+)-niguldipine], in series [1] (1 μM), the “concentration of Aβ1-40 compared to controls” value is recorded as “significantly decreased”, the “concentration of Aβ1-42 compared to controls” value is reported as “significantly decreased” and the “concentration of total β-amyloid compared to controls” value is reported as “significantly decreased”. Also, in series [1] (5 μM), the “concentration of Aβ1-40 compared to controls” value is given as “significantly decreased”, the “concentration of Aβ1-42 compared to controls” value is recorded as “significantly decreased” and the “concentration of total β-amyloid compared to controls” value is “significantly decreased”. Further, in series [1] (30 μM), the “concentration of Aβ1-40 compared to controls” value is on record as “significantly decreased”, the “concentration of Aβ1-42 compared to controls” value was “significantly decreased” and the “concentration of total β-amyloid compared to controls” value is “significantly decreased”.
As to `CCOC(=O)C1=C(C)NC(C)=C(C(=O)OCC)C1c1ccccc1Cl` [Example 6, Diethyl 4-(2-chlorophenyl)-1,4-dihydro-2,6-dimethylpyridine-3,5-dicarboxylate], the melting point (usually the temperature of the solid-liquid transition) lay in the range of 120 to 121 °C.
On the same count and under the same terms, then `CC(=O)C1=C(C)NC(C)=C(C(C)=O)C1c1ccccc1Cl` [Example 7, 4-(2-Chlorophenyl)-1,4-dihydro-2,6-dimethylpyridine-3,5-di(2-ethanone)], with 196 to 197 °C; and `COC(=O)C1=C(C)NC(C)=C(C(=O)OC)C1c1ccccc1Cl` [Example 8, Dimethyl 4-(2-chlorophenyl)-1,4-dihydro-2,6-dimethylpyridine-3,5-dicarboxylate], with 188 to 189 °C; and `CC1=C(C(=O)OC(C)(C)C)C(c2ccccc2Cl)C(C(=O)OC(C)(C)C)=C(C)N1` [Example 9, Di-tert-butyl 4-(2-chlorophenyl)-1,4-dihydro-2,6-dimethylpyridine-3,5-dicarboxylate], with 194 to 196 °C.
Same read-out and setting: as for `COCCOC(=O)C1=C(C)NC(C)=C(C(=O)OCCOC)C1c1ccccc1Cl` [Example 10, Bis(2-methoxyethyl) 4-(2-chlorophenyl)-1,4-dihydro-2,6-dimethylpyridine-3,5-dicarboxylate], the figure is 120 to 121 °C; as for `CCOC(=O)C1=C(C)NC(C)=C(C(=O)OCC)C1c1ccccc1Br` [Example 11, Diethyl 4-(2-bromophenyl)-1,4-dihydro-2,6-dimethylpyridine-3,5-dicarboxylate], 144 to 145 °C; as for `CCOC(=O)C1=C(C)NC(C)=C(C(=O)OCC)C1c1ccccc1F` [Example 12, Diethyl 4-(2-fluorophenyl)-1,4-dihydro-2,6-dimethylpyridine-3,5-dicarboxylate], 151 to 152.5 °C.
On the same count and under the same terms, then `CC1=C(C(=O)OC(C)(C)C)C(c2ccccc2Br)C(C(=O)OC(C)(C)C)=C(C)N1` [Example 14, Di-tert-butyl 4-(2-bromophenyl)-1,4-dihydro-2,6-dimethylpyridine-3,5-dicarboxylate], with 162 to 164 °C.
Regarding `NC(=O)Nc1sc(-c2ccc(F)cc2)cc1C(N)=O` [IKK-2 Inhibitor IV], in series [1] (500 nM), the “concentration of Aβ1-40 compared to controls” value is reported as “significantly decreased”, the “concentration of Aβ1-42 compared to controls” value is “significantly decreased” and the “concentration of total β-amyloid compared to controls” value was “significantly decreased”. For the same molecule, in series [1] (5 μM), the “concentration of Aβ1-40 compared to controls” value is “significantly decreased”, the “concentration of Aβ1-42 compared to controls” value was “significantly decreased” and the “concentration of total β-amyloid compared to controls” value is given as “significantly decreased”.
As to `COC(=O)C1=C(C)NC(C)=C(C(=O)OCCCN2CCC(c3ccccc3)(c3ccccc3)CC2)[C@@H]1c1cccc([N+](=O)[O-])c1.Cl` [R-niguldipine], the “concentration of Aβ1-40 compared to controls” value in series [1] (1 μM), in series [1] (5 μM) and in series [1] (30 μM) was “significantly decreased” in each case. For the same molecule, the “concentration of Aβ1-42 compared to controls” value in series [1] (1 μM), in series [1] (5 μM) and in series [1] (30 μM) was “significantly decreased” throughout. For the same molecule, the “concentration of total β-amyloid compared to controls” value in series [1] (1 μM), in series [1] (5 μM) and in series [1] (30 μM) was “significantly decreased” in each case.
As to `CCOC(=O)C1=C(C)NC(C)=C(C(=O)OCC)C1c1ccc(-c2ccccc2C(F)(F)F)o1` [RJC 03405, diethyl 2,6-dimethyl-4-{5-[2-(trifluoromethyl)phenyl]-2-furyl}-1,4-dihydro-3,5-pyridinedicarboxylate], in series [2], the “concentration of Aβ1-40 compared to controls” value is reported as “significantly decreased” and the “concentration of total β-amyloid (Aβ1-40+Aβ1-42) compared to controls” value was “significantly decreased”.
As to `CCOC(=O)C1=C(C)NC(C)=C(C(=O)OCC)C1c1ccc(OC)cc1Cl` [RJC 03413, diethyl 4-(2-chloro-4-methoxyphenyl)-2,6-dimethyl-1,4-dihydro-3,5-pyridinedicarboxylate], in series [2], the “concentration of Aβ1-40 compared to controls” value is reported as “significantly decreased” and the “concentration of total β-amyloid (Aβ1-40+Aβ1-42) compared to controls” value is “significantly decreased”.
As to `COC(=O)C1=C(C)NC(C)=C(C(=O)OC)C1c1ccc(Cl)cc1Cl` [RJC 03423, dimethyl 4-(2,4-dichlorophenyl)-2,6-dimethyl-1,4-dihydro-3,5-pyridinedicarboxylate], in series [2], the “concentration of Aβ1-40 compared to controls” value is “significantly decreased”, the “concentration of Aβ1-42 compared to controls” value was “significantly decreased” and the “concentration of total β-amyloid (Aβ1-40+Aβ1-42) compared to controls” value is listed as “significantly decreased”.
As to `COC(=O)C1=C(C)NC(C)=C(C(=O)OC)C1c1ccc(-c2ccsc2C(=O)OC)o1` [SEW 02070, dimethyl 4-{5-[2-(methoxycarbonyl)-3-thienyl]-2-furyl}-2,6-dimethyl-1,4-dihydropyridine-3,5-dicarboxylate], in series [2], the “concentration of Aβ1-40 compared to controls” value is reported as “significantly decreased” and the “concentration of total β-amyloid (Aβ1-40+Aβ1-42) compared to controls” value was “significantly decreased”.
`CCOC(=O)C1=C(C)NC(C)=C(C(=O)OCC)C1c1cccc([N+](=O)[O-])c1` [XBX 00343, diethyl 2,6-dimethyl-4-(3-nitrophenyl)-1,4-dihydropyridine-3,5-dicarboxylate]: in series [2], the “concentration of Aβ1-40 compared to controls” value is “significantly decreased” and the “concentration of total β-amyloid (Aβ1-40+Aβ1-42) compared to controls” value is given as “significantly decreased”.
In the case of `CC1=C(O)C(=O)C=C2C1=CC=C1[C@@]2(C)CC[C@@]2(C)[C@@H]3C[C@](C)(C(=O)O)CC[C@]3(C)CC[C@]12C` [celastrol], in series [1] (500 nM), the “concentration of Aβ1-40 compared to controls” value is recorded as “significantly decreased”, the “concentration of Aβ1-42 compared to controls” value is given as “significantly decreased” and the “concentration of total β-amyloid compared to controls” value is “significantly decreased”. For the same molecule, in series [1] (5 μM), the “concentration of Aβ1-40 compared to controls” value is listed as “significantly decreased”, the “concentration of Aβ1-42 compared to controls” value is recorded as “significantly decreased” and the “concentration of total β-amyloid compared to controls” value is listed as “significantly decreased”.
Consider `C=C1C(=O)O[C@@H]2C[C@@]3(C)CCCC(=C)[C@@H]3C[C@H]12` [isohelenin], for which, in series [1] (5 μM), the “concentration of Aβ1-40 compared to controls” value is “significantly decreased”, the “concentration of Aβ1-42 compared to controls” value is on record as “significantly decreased” and the “concentration of total β-amyloid compared to controls” value is “significantly decreased”. For the same molecule, in series [1] (10 μM), the “concentration of Aβ1-40 compared to controls” value is listed as “significantly decreased”, the “concentration of Aβ1-42 compared to controls” value is “significantly decreased” and the “concentration of total β-amyloid compared to controls” value was “significantly decreased”.
`C=C1C(=O)[C@@]23[C@H](O)C[C@@H]4C(C)(C)CC[C@H](O)[C@@]4(CO)[C@@H]2CC[C@@H]1[C@H]3O` [kamebakaurin]: in series [1] (10 μM), the “concentration of Aβ1-40 compared to controls” value is on record as “significantly decreased”, the “concentration of Aβ1-42 compared to controls” value was “significantly decreased” and the “concentration of total β-amyloid compared to controls” value is given as “significantly decreased”. Besides, in series [1] (30 μM), the “concentration of Aβ1-40 compared to controls” value is recorded as “significantly decreased”, the “concentration of Aβ1-42 compared to controls” value is given as “significantly decreased” and the “concentration of total β-amyloid compared to controls” value is listed as “significantly decreased”.
